Measurements as given in US20090220516A1, “Neuroprotection of retinal ganglion cells” (priority 2005, published 2009).

Legend:
retinal ganglion cells = assay: Cell viability studies: labeled retinal ganglion cells surviving after 24 hrs in mixed retinal cultures; type: cell-based, rat; details: 300 uM ATP alone, 24 hrs
Method: Pups PD2-6 from untimed pregnant Long-Evan rats (Jackson Laboratory Inc., Bar Harbor, Me.) were back-labeled by the injection of FluoroGold derivative aminostilbamidine (Molecular Probes, Eugene, Oreg.) based upon standard protocols. […] Using a Hamilton syringe affixed to a micromanipulator, a needle was inserted 0.8 mm lateral from the midline and 0.8 mm anterior to Bregma's line and a total of 2.5 μl dye was delivered to each side at a depth of 2 mm and 1 mm. The needle was retracted after a delay of 2 min to allow dye absorption and the wound was closed with 2-3 sutures. Preliminary examination of labeled retinal whole mounts confirmed an even distribution of dye, showing all cells were stained 2 days after injection, with no further increase in the number of labeled cells in subsequent days. Consequently, retinas containing labeled ganglion cells were dissociated 2-6 days after injection. Animals were sacrificed by i.p. injection of 50/5 mg/kg Ketamine/Xylazine followed by an overdose, in accordance with University of Pennsylvania IACUC approved protocols and the ARVO Statement on the Use of Animals in Ophthalmic and Vision Research.
The retina was dissected from each globe, washed in sterile Hanks' balanced salt solution (HBSS, Gibco, Inc Invitrogen Corp., Carlsbad, Calif.), then incubated in HBSS containing activated papain (4.5 U/ml; Worthington Biochemical Corp., Lakewood, N.J.) for 12 minutes at 37° C. Retinas were washed twice and triturated 50 times with a 1-ml glass pipette to dissociate cells. Cells were plated onto twelve 12-mm coverslips previously coated with poly-L-lysine. […] Retinal cells were incubated at 37° C. with 5% CO2.
Drugs were added to the culture medium at the time when cells were plated onto coverslips. […] All counts were performed in a masked fashion. In experiments involving antagonist pretreatment, drugs were added to the medium at the time of plating. After preincubation at 37° C., stock concentrations of BzATP were added directly to the cells to give the final concentration shown.
Data are presented as mean±standard error of the mean. Significance was evaluated using a Student's unpaired t test, with a p value <0.05 signifying significance. For cell viability studies, the number of experiments, n, represents the number of coverslips from which 80 fields were measured and averaged. All values were normalized to the mean control level for that day's matched set of experiments to control for variation in plating efficiency.

rat P2X7 receptor = biological target: T1, rat P2X7 receptor (Rattus norvegicus, UniProt Q64663); details: cited from earlier work
T1 sequence (Q64663 1-595): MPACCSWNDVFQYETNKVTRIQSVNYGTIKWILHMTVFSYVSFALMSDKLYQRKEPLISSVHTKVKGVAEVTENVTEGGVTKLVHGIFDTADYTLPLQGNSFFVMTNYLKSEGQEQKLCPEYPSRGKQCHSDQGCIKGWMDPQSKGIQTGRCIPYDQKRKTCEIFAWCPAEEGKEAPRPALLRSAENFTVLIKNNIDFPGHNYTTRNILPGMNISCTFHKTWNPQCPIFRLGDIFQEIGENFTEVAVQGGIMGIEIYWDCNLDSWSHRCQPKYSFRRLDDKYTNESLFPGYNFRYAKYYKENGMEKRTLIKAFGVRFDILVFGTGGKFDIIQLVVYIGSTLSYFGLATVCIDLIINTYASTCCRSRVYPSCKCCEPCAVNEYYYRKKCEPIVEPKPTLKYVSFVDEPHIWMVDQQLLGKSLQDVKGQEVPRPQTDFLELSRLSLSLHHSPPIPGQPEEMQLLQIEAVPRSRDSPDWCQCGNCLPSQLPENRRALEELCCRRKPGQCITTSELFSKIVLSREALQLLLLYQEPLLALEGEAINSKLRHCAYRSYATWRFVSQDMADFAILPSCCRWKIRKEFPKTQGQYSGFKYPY

retina eyecup = assay: Pressure-triggered ATP release from the bovine retina eyecup; details: 30 μM NPPB, 15 minutes preincubation and in medium
Description: C. ATP release by increased extracellular pressure is inhibited by the general chloride channel blocker NPPB, indicating physiologic significance. […] The ATP levels were normalized with the non-pressure and non NPPB eyecup control levels (white bar). Bars represent the mean±standard error. Numbers indicates the number of retina eyecups per experiment. We performed ANOVA test (Dunnett post-test) to obtain the significant differences indicated by a * symbol (p<0.05) as significant difference with control and ** (p<0.05) as significant difference with the pressure challenged eyecups.

Row | SMILES | effect on ganglion cell survival (retinal ganglion cells) | EC50 (rat P2X7 receptor) | effect on ATP release induced by 20 mm Hg rise in extracellular pressure (retina eyecup)
1 | Nc1ncnc2c1ncn2C1OC(COP(=O)(O)OP(=O)(O)OP(=O)(O)O)C(O)C1O (stereo not drawn) [ATP] | small but significant increase in cell survival | 300 µM | –
2 | O=C(O)c1cc([N+](=O)[O-])ccc1NCCCc1ccccc1 [NPPB, 5-nitro-2-(3-phenylpropyl-amino)benzoic acid] | – | – | inhibits the ATP release
